Assay results as given in PubChem BioAssay AID1963839 (Molecular Pharmacology Branch, DTP, NCI, 2024).

Tested on: 817829-284-R-J1-PDC complex spheroid viability
Assay: Anticancer human tumor 817829-284-R-J1-PDC patient-derived colon adenocarcinoma cell line growth inhibition [POLQ]
Conditions: for IC50: curve of first compound; for viability, T/C: stronger effect = lower value
Outline: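 PDC + HUVEC + MSC complex spheroids; POLQ inhibitors ± partner drugs; top conc. at/near clinical Cmax, else 10 microM (SN-38 1 microM), half-log dilutions; 37 degrees C, 5% CO2.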
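Further: spheroids exposed to compounds for 7 days.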
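Wherever viability, T/C is given: 100% = DMSO vehicle-treated spheroids.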

Work on `COc1cc2cc(C(=O)CCC(=O)O)sc2cc1OC` + Nc1ccc(C#CCN(C(=O)Cc2ncc(C(F)(F)F)cc2C(F)(F)F)c2ccc(F)cc2)nn1 yielded an IC50 (second compound 0.0316 µM) greater than 10 µM, an IC50 (second compound 0.1 µM) greater than 10 µM and an IC50 (second compound 0.316 µM) greater than 10 µM. For the same compound, the IC50 (second compound 1 µM) was greater than 10 µM, the IC50 (second compound 3.16 µM) was greater than 10 µM and the IC50 (second compound 10 µM) was greater than 10 µM. It also gave a viability, T/C (second compound 0.0316 µM, first compound 0.0316 µM) of 91.1%, a viability, T/C (second compound 0.0316 µM, first compound 0.1 µM) of 98.4% and a viability, T/C (second compound 0.0316 µM, first compound 0.316 µM) of 90.1%. The viability, T/C (second compound 0.0316 µM, first compound 1 µM) was 110%, the viability, T/C (second compound 0.0316 µM, first compound 3.16 µM) was 136% and the viability, T/C (second compound 0.0316 µM, first compound 10 µM) was 99.3%. It also gave a viability, T/C (second compound 0.1 µM, first compound 0.0316 µM) of 99.4%, a viability, T/C (second compound 0.1 µM, first compound 0.1 µM) of 97.4% and a viability, T/C (second compound 0.1 µM, first compound 0.316 µM) of 101%. It also gave a viability, T/C (second compound 0.1 µM, first compound 1 µM) of 86.8%, a viability, T/C (second compound 0.1 µM, first compound 3.16 µM) of 105% and a viability, T/C (second compound 0.1 µM, first compound 10 µM) of 105%. It also gave a viability, T/C (second compound 0.316 µM, first compound 0.0316 µM) of 93.1%, a viability, T/C (second compound 0.316 µM, first compound 0.1 µM) of 101% and a viability, T/C (second compound 0.316 µM, first compound 0.316 µM) of 114%. For the same compound, the viability, T/C (second compound 0.316 µM, first compound 1 µM) was 110%, the viability, T/C (second compound 0.316 µM, first compound 3.16 µM) was 108% and the viability, T/C (second compound 0.316 µM, first compound 10 µM) was 110%. The viability, T/C (second compound 1 µM, first compound 0.0316 µM) was 96.1%, the viability, T/C (second compound 1 µM, first compound 0.1 µM) was 97% and the viability, T/C (second compound 1 µM, first compound 0.316 µM) was 104%. It also gave a viability, T/C (second compound 1 µM, first compound 1 µM) of 95.9%, a viability, T/C (second compound 1 µM, first compound 3.16 µM) of 103% and a viability, T/C (second compound 1 µM, first compound 10 µM) of 112%. It also gave a viability, T/C (second compound 3.16 µM, first compound 0.0316 µM) of 102%, a viability, T/C (second compound 3.16 µM, first compound 0.1 µM) of 107% and a viability, T/C (second compound 3.16 µM, first compound 0.316 µM) of 99.7%. It also gave a viability, T/C (second compound 3.16 µM, first compound 1 µM) of 112%, a viability, T/C (second compound 3.16 µM, first compound 3.16 µM) of 117% and a viability, T/C (second compound 3.16 µM, first compound 10 µM) of 108%. The viability, T/C (second compound 10 µM, first compound 0.0316 µM) was 99.8%, the viability, T/C (second compound 10 µM, first compound 0.1 µM) was 109% and the viability, T/C (second compound 10 µM, first compound 0.316 µM) was 98.1%. For the same compound, the viability, T/C (second compound 10 µM, first compound 1 µM) was 95.3%, the viability, T/C (second compound 10 µM, first compound 3.16 µM) was 93% and the viability, T/C (second compound 10 µM, first compound 10 µM) was 91.7%.

`CC(=O)O[C@H]1C(=O)[C@@]2(C)[C@H]([C@H](OC(=O)c3ccccc3)[C@]3(O)C[C@H](OC(=O)[C@H](O)[C@@H](NC(=O)c4ccccc4)c4ccccc4)C(C)=C1C3(C)C)[C@]1(OC(C)=O)CO[C@@H]1C[C@@H]2O` + COC1C(OC(N)=O)C(O)C(Oc2ccc3c(O)c(NC(=O)c4ccc(O)c(CC=C(C)C)c4)c(=O)oc3c2C)OC1(C)C was tested, and the IC50 (second compound 0.0316 µM) was less than 0.00949 µM, the IC50 (second compound 0.1 µM) was less than 0.00949 µM and the IC50 (second compound 0.316 µM) was less than 0.00949 µM. It also gave an IC50 (second compound 1 µM) of less than 0.00949 µM, an IC50 (second compound 3.16 µM) of less than 0.00949 µM and an IC50 (second compound 10 µM) of less than 0.00949 µM. For the same compound, the viability, T/C (second compound 0.0316 µM, first compound 0.00949 µM) was 6.3%, the viability, T/C (second compound 0.0316 µM, first compound 0.03 µM) was 5.64% and the viability, T/C (second compound 0.0316 µM, first compound 0.0949 µM) was 4.85%. It also gave a viability, T/C (second compound 0.0316 µM, first compound 0.3 µM) of 4.95%, a viability, T/C (second compound 0.0316 µM, first compound 0.949 µM) of 4.91% and a viability, T/C (second compound 0.0316 µM, first compound 3 µM) of 5.21%. The viability, T/C (second compound 0.1 µM, first compound 0.00949 µM) was 5.46%, the viability, T/C (second compound 0.1 µM, first compound 0.03 µM) was 4.45% and the viability, T/C (second compound 0.1 µM, first compound 0.0949 µM) was 4.97%. The viability, T/C (second compound 0.1 µM, first compound 0.3 µM) was 5.08%, the viability, T/C (second compound 0.1 µM, first compound 0.949 µM) was 4.85% and the viability, T/C (second compound 0.1 µM, first compound 3 µM) was 5.2%. For the same compound, the viability, T/C (second compound 0.316 µM, first compound 0.00949 µM) was 5.79%, the viability, T/C (second compound 0.316 µM, first compound 0.03 µM) was 5.7% and the viability, T/C (second compound 0.316 µM, first compound 0.0949 µM) was 5.32%. For the same compound, the viability, T/C (second compound 0.316 µM, first compound 0.3 µM) was 4.7%, the viability, T/C (second compound 0.316 µM, first compound 0.949 µM) was 4.56% and the viability, T/C (second compound 0.316 µM, first compound 3 µM) was 4.8%. For the same compound, the viability, T/C (second compound 1 µM, first compound 0.00949 µM) was 5.74%, the viability, T/C (second compound 1 µM, first compound 0.03 µM) was 5.47% and the viability, T/C (second compound 1 µM, first compound 0.0949 µM) was 5.82%. For the same compound, the viability, T/C (second compound 1 µM, first compound 0.3 µM) was 4.18%, the viability, T/C (second compound 1 µM, first compound 0.949 µM) was 4.64% and the viability, T/C (second compound 1 µM, first compound 3 µM) was 5.33%. It also gave a viability, T/C (second compound 3.16 µM, first compound 0.00949 µM) of 5.62%, a viability, T/C (second compound 3.16 µM, first compound 0.03 µM) of 5.09% and a viability, T/C (second compound 3.16 µM, first compound 0.0949 µM) of 4.79%. The viability, T/C (second compound 3.16 µM, first compound 0.3 µM) was 4.48%, the viability, T/C (second compound 3.16 µM, first compound 0.949 µM) was 4.83% and the viability, T/C (second compound 3.16 µM, first compound 3 µM) was 4.67%. For the same compound, the viability, T/C (second compound 10 µM, first compound 0.00949 µM) was 5.28%, the viability, T/C (second compound 10 µM, first compound 0.03 µM) was 5.23% and the viability, T/C (second compound 10 µM, first compound 0.0949 µM) was 5.99%. It also gave a viability, T/C (second compound 10 µM, first compound 0.3 µM) of 5.05%, a viability, T/C (second compound 10 µM, first compound 0.949 µM) of 4.95% and a viability, T/C (second compound 10 µM, first compound 3 µM) of 5.41%.
